Source: article PMC6934184, “Selective DNA-PKcs inhibition extends the therapeutic index of localized radiotherapy and chemotherapy” (The Journal of Clinical Investigation, 2019)

Target: T1, MELK (Homo sapiens, UniProt Q14680)
T1 construct: purchased Thermo Fisher Scientific (Life Technologies) SelectScreen
Experiment: SelectScreen Z'LYTE
Format: biochemical
Method in brief: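 SelectScreen broad panel; activity (Z'LYTE, Adapta) plus binding formats. ATP: Km app for CSF1R Z'LYTE; 10 for CAMK1 Adapta. Readout = % per kinase.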

T1 sequence (Q14680 whole entry): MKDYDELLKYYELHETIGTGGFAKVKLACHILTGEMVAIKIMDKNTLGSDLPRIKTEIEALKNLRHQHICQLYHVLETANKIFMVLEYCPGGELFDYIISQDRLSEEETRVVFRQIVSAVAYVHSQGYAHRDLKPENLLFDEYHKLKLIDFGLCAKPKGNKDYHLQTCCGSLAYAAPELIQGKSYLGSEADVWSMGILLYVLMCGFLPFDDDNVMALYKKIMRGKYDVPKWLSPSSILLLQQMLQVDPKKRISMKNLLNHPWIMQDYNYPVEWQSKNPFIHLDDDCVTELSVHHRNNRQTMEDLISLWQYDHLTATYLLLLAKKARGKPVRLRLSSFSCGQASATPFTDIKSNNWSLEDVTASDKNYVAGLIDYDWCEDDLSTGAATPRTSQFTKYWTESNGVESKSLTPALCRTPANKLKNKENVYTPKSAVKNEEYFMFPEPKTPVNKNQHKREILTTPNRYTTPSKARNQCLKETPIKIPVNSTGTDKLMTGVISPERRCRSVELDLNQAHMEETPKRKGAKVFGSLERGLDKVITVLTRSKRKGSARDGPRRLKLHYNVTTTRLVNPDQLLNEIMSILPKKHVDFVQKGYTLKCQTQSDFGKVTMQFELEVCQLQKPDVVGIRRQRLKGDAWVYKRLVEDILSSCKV

CN(C(=O)CN1CCOCC1)c1ccc2sc3c(-c4cccc5c(=O)cc(N6CC7CCC(C6)O7)oc45)cccc3c2c1 [NU5455]
inhibition at 1 µM: -11.8%
